Measurements taken from patent EP1495132B1, “SYSTEMIC MARKER FOR MONITORING ANTI-INFLAMMATORY AND ANTIOXIDANT ACTIONS OF THERAPEUTIC AGENTS” (priority 2002, dated 2003).
Several values for one entry are separate records, joined by “and”; a condition that tells them apart may be missing. Identical values can stand only once.

Legend:
[1] = tested on: MPO and multiple distinct oxidation products formed by MPO; assay: Example 14: plasma MPO and oxidation products, ARB therapy; type: in vivo, human; details: 16 weeks of losartan 25 mg PO QD, n=16
Text: Angiotensin receptor blocking agents are a new therapy used for treatment of hypertension. They act upon the same biochemical axis as ACEI. Accordingly, they promote clinical benefits beyond those linked to blood pressure reduction - those related to presumed anti-inflammatory and antioxidant actions. However, no means for objectively monitoring these effects have been available. We hypothesized that monitoring levels of MPO and its oxidation products might serve as a way of quantifying the anti-inflammatory and antioxidant effects of ARBs. […] These studies underscore the potential utility of MPO and its oxidation products for monitoring systemic antioxidant and anti-inflammatory effects of therapeutic interventions.

MPO = assay: Example 15: plasma levels of MPO, statin therapy; type: in vivo, human; details: n=27
[2] = tested on: MPO-generated markers of protein and lipid oxidation; assay: Example 10: MPO-generated oxidation markers and hs-CRP after 12 weeks of atorvastatin (Figs. 14, 15); type: in vivo, human; details: baseline vs 12 weeks of atorvastatin 10 mg PO QHS
[3] = tested on: oxidation products produced by myeloperoxidase and nitric oxide-derived oxidants; assay: Prospective intervention study: plasma protein-bound tyrosine oxidation products at baseline and after 12 weeks of atorvastatin; type: in vivo, human
Experimental: The population consisted of a consecutive sample of patients recruited from the Preventive Cardiology Clinic at the Cleveland Clinic Foundation from June 2001 until January 2002 who were eligible and consented to participate in the study. Patients 21 years of age and older without clinical evidence of CAD and with low-density lipoprotein cholesterol (LDL-C) levels ≥ 130mg/dL, despite at least 6-8 weeks of therapeutic lifestyle interventions, were eligible to participate in the study. Briefly at initial screening, a detailed medical history was obtained, a thorough physical examination was performed, and a fasting lipoprotein profile was obtained. Patients potentially eligible for the study received counseling on nutritional and exercise interventions. If after 6-8 weeks LDL-C remained ≥130mg/dL, patients were eligible for enrollment in the study. […] Patient with active liver disease or renal insufficiency defined as serum creatine levels of 1.8 mg per deciliter or greater were excluded. […] All patients gave written informed consent, and the Institutional Review Board at the Cleveland Clinic Foundation approved the study protocol.
Blood samples were collected into serum separator tubes (Case-control study) or EDTA tubes (Intervention study) from overnight fasted patients. Samples were centrifuged at 3500 rpm for 10 minutes, plasma/serum recovered, and aliquots stored at -80°C until analysis. Personnel blinded to clinical data performed all laboratory measurements. Lipoprotein/lipid profiles and high sensitivity C-reactive protein (CRP) measurements were performed using CDC standardized assays.
Protein-bound nitrotyrosine levels were determined by stable isotope dilution liquid chromatography-electrospray ionization tandem mass spectrometry based methods using an ion trap mass spectrometer (LCQ Deca, ThermoFinigann, San Jose, CA). […] Nitrotyrosine content in samples is expressed as the mole ratio between nitrotyrosine and the precursor amino acid tyrosine. […]

[4] = tested on: lipid levels and high-sensitivity CRP
Experimental: Wilcoxon rank-sum test was used to analyze the differences between measurements at baseline and 12 weeks. […] Approximate 95% confidence intervals were found using Fisher's r-to-z transform. Multiple regression analyses were performed to determine factors associated with changes in nitrotyrosine levels.
We performed a prospective, open-label study. The study cohort consisted of a consecutive sample of patients (n=35) recruited from the Preventive Cardiology Clinic at the Cleveland Clinic Foundation. Patients 21 years of age and older without clinical evidence of coronary artery disease and with LDL cholesterol (LDL-C) levels 130 mg per deciliter or greater, despite at least 6-8 weeks of therapeutic lifestyle interventions, were eligible to participate in the study. Briefly, at initial screening, a detailed medical history was obtained, a thorough physical examination was performed, and a fasting lipoprotein profile was obtained. Patients potentially eligible for the study received counseling on nutritional and exercise interventions. If after 6-8 weeks LDL-C remained above 130 mg/dL, patients were eligible for enrollment in the study. […] Fasting morning plasma samples were collected prior to initiation of therapy (baseline), and following 12 weeks of therapy. Patients with active liver disease or renal insufficiency defined as a serum creatinine level of 1.8 mg per deciliter or greater were excluded. […] All patients gave written informed consent, and the Institutional Review Board at the Cleveland Clinic Foundation approved the study protocol.
Blood samples were collected into EDTA tubes from fasting patients. Samples were centrifuged at 3500 rpm for 10 minutes at 4°C, and stored under conditions to minimize artificial oxidation (i.e., with antioxidant cocktail, under inert atmosphere). Briefly, plasma was removed and allocated into tubes containing butylated hydroxytoluene (100µM final) and diethylenetriaminepentaacetic acid (100µM final) overlaid with argon and stored at -80°C until analysis. Standard methods were used to measure lipid levels and high-sensitivity CRP.
Data are presented as mean ± SD, and significance level was set at p < 0.05. Wilcoxon rank-sum test was used to analyze the differences between NO2Tyr, diTyr, and CRP at baseline and 12 weeks, as they were not normally distributed.

[5] = tested on: oxidation products produced by myeloperoxidase and nitric oxide-derived oxidants; assay: Prospective intervention study: plasma protein-bound tyrosine oxidation products at baseline and after 12 weeks of atorvastatin; type: in vivo, human; remark: listed apart in the source
human MPO = biological target: T1, human MPO (Homo sapiens, UniProt P05164); assay: MPO-dependent initiation of lipid peroxidation of endogenous plasma lipids (isolated MPO plus glucose/glucose oxidase); type: biochemical; details: 30 nM MPO, G/GO, 50% plasma, 12 h, 37° C; 1 mM NaN3, 300 nM catalase, 200 nM SOD, 100 µM methionine, 100 µM ascorbate
T1 construct: from tissue; host or cells: human leukocytes, for the MPO standard of the ELISA; the lipid peroxidation text only says 'isolated'/'purified' and cites the literature
T1 sequence (P05164 279-745 limits assumed): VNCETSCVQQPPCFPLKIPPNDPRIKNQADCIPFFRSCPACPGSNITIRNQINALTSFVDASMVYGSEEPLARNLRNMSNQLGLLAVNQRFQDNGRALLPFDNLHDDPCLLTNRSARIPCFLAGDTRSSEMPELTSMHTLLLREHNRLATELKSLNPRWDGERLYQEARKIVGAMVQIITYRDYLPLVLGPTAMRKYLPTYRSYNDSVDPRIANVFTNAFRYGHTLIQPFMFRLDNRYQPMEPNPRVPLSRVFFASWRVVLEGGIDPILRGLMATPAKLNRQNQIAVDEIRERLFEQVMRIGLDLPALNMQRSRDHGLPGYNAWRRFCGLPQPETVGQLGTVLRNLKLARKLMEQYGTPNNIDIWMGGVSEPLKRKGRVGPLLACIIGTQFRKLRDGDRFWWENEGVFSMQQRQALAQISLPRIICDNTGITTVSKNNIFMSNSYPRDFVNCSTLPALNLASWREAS
T1 sequence (P05164 165-273 limits assumed): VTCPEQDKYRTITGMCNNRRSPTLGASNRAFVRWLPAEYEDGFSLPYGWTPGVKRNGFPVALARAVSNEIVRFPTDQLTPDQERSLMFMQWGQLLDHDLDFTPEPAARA
Experimental: Neutrophils (1×10^6/ml) isolated from normal and MPO-deficient individuals were incubated at 37° C in HBSS supplemented with DTPA (100 µM, pH 7.0) and fresh human plasma (50% v/v). Cells were activated by addition of phorbol myristate acetate (PMA, 200 nM) and incubated for 2 h (Complete System). The content of 9-H(P)ODE and 9-H(P)ETE formed within endogenous plasma lipids were then determined by LC/ESI/MS/MS. Where indicated, human MPO (30 nM) was added to reaction mixtures. Data represent the mean ±SD of triplicate determinations. Each bar within a cluster for a given condition represents results obtained from independent experiments performed with neutrophil preparations from a distinct donor. PMN(MPO+), neutrophils isolated from normal subjects; PMN(MPO-), neutrophils isolated from MPO-deficient subjects. • Figs. 5(A-B) are graphs showing the characterization of neutrophil-dependent initiation of lipid peroxidation of endogenous plasma lipids. […] The content of 9-H(P)ODE and 9-H(P)ETE formed within endogenous plasma lipids were then determined by LC/ESI/MS/MS. […] The content of 9-H(P)ODE and 9-H(P)ETE formed within endogenous plasma lipids were then determined by LC/ESI/MS/MS. […] The contents of the indicated oxidized PC species were determined in native LDL and LDL oxidized by the MPO-H2O2-NO2 system (NO2-LDL) using LC/ESI/MS/MS. […]

Human neutrophils = assay: Neutrophil-dependent initiation of lipid peroxidation of endogenous plasma lipids (PMA-activated neutrophils, LC/ESI/MS/MS); type: cell-based; details: 50% plasma, 2 h, 37° C, 1 mM NaN3, 300 nM catalase, 100 µM methionine, 100 µM ascorbate, 10 µg/ml SOD
Experimental: Neutrophils (1×10^6/ml) isolated from normal and MPO-deficient individuals were incubated at 37° C in HBSS supplemented with DTPA (100 µM, pH 7.0) and fresh human plasma (50% v/v). Cells were activated by addition of phorbol myristate acetate (PMA, 200 nM) and incubated for 2 h (Complete System). The content of 9-H(P)ODE and 9-H(P)ETE formed within endogenous plasma lipids were then determined by LC/ESI/MS/MS. Where indicated, human MPO (30 nM) was added to reaction mixtures. Data represent the mean ±SD of triplicate determinations. Each bar within a cluster for a given condition represents results obtained from independent experiments performed with neutrophil preparations from a distinct donor. PMN(MPO+), neutrophils isolated from normal subjects; PMN(MPO-), neutrophils isolated from MPO-deficient subjects. • Figs. 5(A-B) are graphs showing the characterization of neutrophil-dependent initiation of lipid peroxidation of endogenous plasma lipids. Neutrophils (1×10^6/ml) isolated from normal subjects (PMN) were incubated at 37° C in HBSS supplemented with DTPA (100 µM, pH 7.0) and fresh human plasma (50% v/v). Cells were activated by addition of phorbol myristate acetate (PMA, 200 nM) and then incubated for 2 h (Complete System). The content of 9-H(P)ODE and 9-H(P)ETE formed within endogenous plasma lipids were then determined by LC/ESI/MS/MS. Additions or deletions to the Complete System were as indicated. The final concentrations of additions to the Complete System were 30 nM human MPO, 1 mM NaN3, 300 nM catalase (Cat), 300 nM heat inactivated-catalase (hiCat), 100 µM methionine (Met), 100 µM ascorbate and 10 µg/ml superoxide dismutase (SOD). […] The content of 9-H(P)ODE and 9-H(P)ETE formed within endogenous plasma lipids were then determined by LC/ESI/MS/MS. […] The contents of the indicated oxidized PC species were determined in native LDL and LDL oxidized by the MPO-H2O2-NO2 system (NO2-LDL) using LC/ESI/MS/MS. […]

[6] = tested on: MPO and multiple distinct oxidation products formed by MPO; assay: Example 13: plasma MPO and oxidation products, ACEI therapy; type: in vivo, human; details: 16 weeks of lisinopril 20 mg PO QD, n=9
Experimental: Subjects (n=9) had plasma drawn at baseline, and then 16 weeks following therapy with lisinopril (Zestril, 20 mg PO QD). Plasma levels of MPO, protein-bound nitrotyrosine, chlorotyrosine, dityrosine, and 9-H(P)ETE and F2Isoprostantes were monitored.

[7] = n=35, LDL cholesterol ≥ 130mg/dL
[8] = baseline to 12 weeks, atorvastatin 10 mg per day, n = 35
[9] = plasma protein-bound, 12 Weeks of atorvastatin 10 mg orally per day, n = 35, mean ± SD
[10] = reduction, baseline to 12 weeks, atorvastatin 10 mg per day, given unsigned
[11] = 12 Weeks of atorvastatin 10 mg orally per day, n = 35, mean ± SD
[12] = reduction, baseline to 12 weeks, atorvastatin 10 mg per day, given unsigned, not significant

## CCCCc1nc(Cl)c(CO)n1Cc1ccc(-c2ccccc2-c2nn[nH]n2)cc1 [losartan]
[1]; plasma protein-bound
  Nitrotyrosine: 8.1 umol/mol
[1]; plasma
  9-H(P)ETE: 0.27 mmol/mol
  Chlorotyrosine: 14.3 umol/mol
  Dityrosine: 28.5 umol/mol
  F2Isoprostane: 0.68 mmol/mol
  MPO: 9.9 ng/mL

## CC(C)c1c(C(=O)Nc2ccccc2)c(-c2ccccc2)c(-c2ccc(F)cc2)n1CC[C@@H](O)C[C@@H](O)CC(=O)O [Atorvastatin, atorvastatin]
MPO; plasma, 16 weeks of Atorvastatin 10 mg PO QD
  MPO: 17.3 ± 4.8 ng/mL
MPO; reduction, baseline to 16 weeks of Atorvastatin 10 mg PO QD, given unsigned
  MPO, % change: 12.2%
[2]; [7]
  reduction in dityrosine: 30%
  reduction in nitrotyrosine: 24%
[2]; n=35, failed to reach significance
  decrease in hs-CRP: 11%
[3]; [8]
  Nitrotyrosine, absolute change: -4 µmol/mol tyrosine
[3]; [9]
  Nitrotyrosine: 11 ± 5 µmol/mol tyrosine
[3]; [10]
  Nitrotyrosine, % change: 25%
[4]; [11]
  Apolipoprotein B-100: 96 ± 21 mg/dL
  C-reactive protein: 0.23 ± 0.33 mg/dL and 0.23 mg/dL
  Total cholesterol level: 190 ± 28 mg/dL
[4]; [8]
  Apolipoprotein B-100, absolute change: -39 mg/dL
  C-reactive protein, absolute change: -0.2 mg/dL
  Total cholesterol, absolute change: -63 mg/dL
  Triglycerides, absolute change: -14 mg/dL
[4]; fasting, 12 Weeks of atorvastatin 10 mg orally per day, n = 35, mean ± SD
  Triglycerides: 132 ± 81 mg/dL
[4]; [10]
  Apolipoprotein B-100, % change: 29%
  Total cholesterol, % change: 25%
[4]; [12]
  C-reactive protein, % change: 11%
  Triglycerides, % change: 10%
[5]; [8]
  Chlorotyrosine, absolute change: -6 µmol/mol tyrosine
  Dityrosine, absolute change: -11 µmol/mol tyrosine
  ortho-tyrosine, absolute change: -8 µmol/mol tyrosine
[5]; [9]
  Chlorotyrosine: 13 ± 4 µmol/mol tyrosine
  Dityrosine: 23 ± 8 µmol/mol tyrosine
  ortho-tyrosine: 81 ± 40 µmol/mol tyrosine
[5]; [10]
  Chlorotyrosine, % change: 30%
  Dityrosine, % change: 32%
[5]; [12]
  ortho-tyrosine, % change: 9%

## azide
Human MPO
  MPO-dependent lipid oxidation in plasma (9-H(P)ODE and 9-H(P)ETE): inhibited
Human neutrophils
  neutrophil-dependent peroxidation of endogenous plasma lipids (9-H(P)ODE and 9-H(P)ETE): complete inhibition

## CSCC[C@H](N)C(=O)O [methionine]
Human MPO
  MPO-dependent lipid oxidation in plasma (9-H(P)ODE and 9-H(P)ETE): not affected
Human neutrophils
  neutrophil-dependent peroxidation of endogenous plasma lipids (9-H(P)ODE and 9-H(P)ETE): failed to attenuate

## O[C@H](CS)[C@H](O)CS (racemic) [dithiothreitol]
Human neutrophils
  neutrophil-dependent peroxidation of endogenous plasma lipids (9-H(P)ODE and 9-H(P)ETE): failed to attenuate

## NCCCC[C@H](N[C@@H](CCc1ccccc1)C(=O)O)C(=O)N1CCC[C@H]1C(=O)O [lisinopril]
[6]; plasma protein-bound
  Nitrotyrosine: 10.3 µmol/mol
[6]; plasma
  9-H(P)ETE: 0.21 mmol/mol
  Chlorotyrosine: 15.0 µmol/mol
  Dityrosine: 24.1 µmol/mol
  F2Isoprostane: 0.72 mmol/mol
  MPO: 8.8 ng/mL
